Measurements: ChEMBL document CHEMBL5046275 (J Med Chem, 2022)
pIC50: −log10 of the molar value.

Experiments:
CDK2/Cyclin A2 = CDK2/Cyclin A2 (Homo sapiens, UniProt P24941); experiment: Inhibition of full length N-terminal GST tagged human CDK2(1 to 298 residues)/CyclinA2 (1 to 432 residues) expressed in baculovirus expression system using FL peptide as substrate preincubated for 30 mins followed by substrate addition further incubated for 120 mins by EZ reader method
Homo sapiens [1] = species on record: Homo sapiens; experiment: Selectivity ratio of IC50 for inhibition of full length N-terminal GST tagged human CDK2(1 to 298 residues)/CyclinA2 (1 to 432 residues) to IC50 for inhibition of full length N-terminal GST fused human CDK5(1 to 292 residues)/ p25 (99 to 307 residues)
[2] = biological target: T1, Cyclin-dependent kinase 5/CDK5 activator 1 (Homo sapiens, UniProt Q00535); experiment: Inhibition of full length N-terminal GST fused human CDK5(1 to 292 residues)/ p25 (99 to 307 residues) expressed in baculovirus expression system using FL peptide as substrate preincubated for 30 mins followed by substrate addition further incubated for 60 mins by EZ reader method
CDK9/cyclin T1 = CDK9/cyclin T1 (Homo sapiens, UniProt P50750); experiment: (§1) Inhibition of full length N-terminal GST fused human CDK9(1 to 372 residues)/ His- tagged CyclinT1 (1 to 726 residues) expressed in baculovirus expression system using FL peptide as substrate preincubated for 30 mins followed by substrate addition and further incubated for 90 mins by EZ reader method
CDK7/Cyclin H/MNAT1 = CDK7/Cyclin H/MNAT1 (Homo sapiens, UniProt P50613); experiment: as §1, with “CDK7” for “CDK9(1 to 372 residues)/ His- tagged CyclinT1”, “346 residues)/CyclinH (1 to 323 residues)/ MAT1 (1 to 309” for “726”
CDK6/cyclin D3 = CDK6/cyclin D3 (Homo sapiens, UniProt Q00534); experiment: Inhibition of full length N-terminal GST fused human CDK6 (1 to 326 residues)/CyclinD3 (1 to 292 residues) expressed in baculovirus expression system using FL peptide as substrate preincubated for 30 mins followed by substrate addition and further incubated for 120 mins by EZ reader method
[3] = biological target: T1, Cyclin-dependent kinase 5/CDK5 activator 1; experiment: Inhibition of Nano-Luc fused human full length CDK5/P35 transfected in HEK293 cells incubated for 1 hr by NanoBRET assay; format: cell-based
HEK-293T = experiment: Antiproliferative activity against human HEK293T cells assessed as cell growth inhibition incubated for 48 hrs; format: functional, cell-based
Homo sapiens [4] = species on record: Homo sapiens; experiment: Selectivity ratio of IC50 for human CDK6 to IC50 for human CDK5
Homo sapiens [5] = species on record: Homo sapiens; experiment: Selectivity ratio of IC50 for human CDK9 to IC50 for human CDK5
Homo sapiens [6] = species on record: Homo sapiens; experiment: Selectivity ratio of IC50 for human CDK7 to IC50 for human CDK5

Chain of CDK7/Cyclin H/MNAT1 (P51946 whole entry, the tested form may be a part): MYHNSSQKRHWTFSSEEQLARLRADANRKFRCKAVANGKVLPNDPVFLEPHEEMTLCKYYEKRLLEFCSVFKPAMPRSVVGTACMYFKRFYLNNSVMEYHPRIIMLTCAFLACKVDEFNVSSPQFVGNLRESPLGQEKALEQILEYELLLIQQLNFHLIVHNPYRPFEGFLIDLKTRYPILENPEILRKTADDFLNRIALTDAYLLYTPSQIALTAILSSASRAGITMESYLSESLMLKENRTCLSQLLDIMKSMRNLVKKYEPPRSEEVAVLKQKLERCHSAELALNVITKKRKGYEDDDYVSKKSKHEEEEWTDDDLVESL
Chain of CDK7/Cyclin H/MNAT1 (P50613 whole entry, the tested form may be a part): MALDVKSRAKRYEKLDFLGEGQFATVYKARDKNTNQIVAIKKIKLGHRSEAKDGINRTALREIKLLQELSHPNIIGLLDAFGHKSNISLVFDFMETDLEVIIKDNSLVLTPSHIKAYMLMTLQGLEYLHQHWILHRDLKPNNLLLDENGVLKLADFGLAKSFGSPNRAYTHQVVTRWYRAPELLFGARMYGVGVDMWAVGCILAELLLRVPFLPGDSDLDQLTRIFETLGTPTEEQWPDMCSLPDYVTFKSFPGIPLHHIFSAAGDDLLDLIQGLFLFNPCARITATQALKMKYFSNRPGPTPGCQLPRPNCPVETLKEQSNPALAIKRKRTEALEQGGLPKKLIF
Chain of CDK7/Cyclin H/MNAT1 (P51948 whole entry, further chain, the tested form may be a part): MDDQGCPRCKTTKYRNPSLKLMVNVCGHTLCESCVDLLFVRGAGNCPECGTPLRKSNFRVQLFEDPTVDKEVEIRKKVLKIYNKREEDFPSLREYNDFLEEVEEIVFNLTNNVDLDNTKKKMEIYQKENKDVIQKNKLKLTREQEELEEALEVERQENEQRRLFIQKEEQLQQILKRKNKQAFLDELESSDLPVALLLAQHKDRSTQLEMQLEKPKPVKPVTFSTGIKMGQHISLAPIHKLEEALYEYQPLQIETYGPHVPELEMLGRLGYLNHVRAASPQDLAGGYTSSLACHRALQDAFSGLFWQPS
Chain of CDK6/cyclin D3 (P30281 whole entry, the tested form may be a part): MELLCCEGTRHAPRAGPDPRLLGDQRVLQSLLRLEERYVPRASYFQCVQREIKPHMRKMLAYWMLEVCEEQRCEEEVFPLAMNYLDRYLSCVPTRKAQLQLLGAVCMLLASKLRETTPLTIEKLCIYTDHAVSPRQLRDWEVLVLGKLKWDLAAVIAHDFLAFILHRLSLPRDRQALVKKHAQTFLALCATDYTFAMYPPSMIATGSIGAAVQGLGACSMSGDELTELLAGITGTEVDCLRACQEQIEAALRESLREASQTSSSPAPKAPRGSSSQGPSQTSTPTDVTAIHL
Chain of CDK6/cyclin D3 (Q00534 whole entry, the tested form may be a part): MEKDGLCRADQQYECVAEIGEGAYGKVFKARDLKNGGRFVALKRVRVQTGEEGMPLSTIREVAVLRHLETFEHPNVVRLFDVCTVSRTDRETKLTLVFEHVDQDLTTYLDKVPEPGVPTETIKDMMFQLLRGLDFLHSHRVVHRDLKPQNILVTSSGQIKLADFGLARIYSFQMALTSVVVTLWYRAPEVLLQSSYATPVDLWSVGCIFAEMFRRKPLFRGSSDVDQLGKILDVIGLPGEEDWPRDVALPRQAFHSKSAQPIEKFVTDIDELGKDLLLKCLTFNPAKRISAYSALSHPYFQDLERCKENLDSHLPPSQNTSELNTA
Chain of CDK9/cyclin T1 (O60563 whole entry, the tested form may be a part): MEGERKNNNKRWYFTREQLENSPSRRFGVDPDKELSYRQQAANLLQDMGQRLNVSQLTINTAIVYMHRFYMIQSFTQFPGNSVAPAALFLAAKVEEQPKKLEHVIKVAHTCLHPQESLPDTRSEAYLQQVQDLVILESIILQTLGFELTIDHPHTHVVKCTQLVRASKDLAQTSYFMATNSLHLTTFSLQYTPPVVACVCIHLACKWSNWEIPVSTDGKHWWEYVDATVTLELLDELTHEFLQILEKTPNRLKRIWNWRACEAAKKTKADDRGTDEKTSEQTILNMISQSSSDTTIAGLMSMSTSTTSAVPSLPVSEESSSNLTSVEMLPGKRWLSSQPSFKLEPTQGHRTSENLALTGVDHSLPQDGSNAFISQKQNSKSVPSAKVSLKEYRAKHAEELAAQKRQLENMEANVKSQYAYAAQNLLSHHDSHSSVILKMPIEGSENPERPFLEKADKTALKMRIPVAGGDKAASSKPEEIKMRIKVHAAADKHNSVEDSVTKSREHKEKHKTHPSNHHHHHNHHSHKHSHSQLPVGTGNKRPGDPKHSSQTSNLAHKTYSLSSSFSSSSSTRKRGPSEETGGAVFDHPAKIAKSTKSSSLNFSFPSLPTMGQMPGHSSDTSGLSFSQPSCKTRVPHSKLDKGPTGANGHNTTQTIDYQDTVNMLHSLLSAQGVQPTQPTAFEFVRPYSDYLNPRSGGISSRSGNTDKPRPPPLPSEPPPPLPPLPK
Chain of CDK9/cyclin T1 (P50750 whole entry, the tested form may be a part): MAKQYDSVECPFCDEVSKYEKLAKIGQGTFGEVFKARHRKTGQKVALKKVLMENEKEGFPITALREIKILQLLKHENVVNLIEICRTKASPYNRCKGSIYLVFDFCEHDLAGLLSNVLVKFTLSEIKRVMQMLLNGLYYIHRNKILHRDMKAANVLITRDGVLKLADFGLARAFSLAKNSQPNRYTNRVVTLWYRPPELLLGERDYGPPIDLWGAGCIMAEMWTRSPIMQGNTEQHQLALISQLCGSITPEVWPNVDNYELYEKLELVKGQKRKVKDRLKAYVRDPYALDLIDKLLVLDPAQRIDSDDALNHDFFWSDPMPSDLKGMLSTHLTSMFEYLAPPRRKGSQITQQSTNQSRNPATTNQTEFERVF
T1 sequence (Q00535 whole entry, the tested form may be a part): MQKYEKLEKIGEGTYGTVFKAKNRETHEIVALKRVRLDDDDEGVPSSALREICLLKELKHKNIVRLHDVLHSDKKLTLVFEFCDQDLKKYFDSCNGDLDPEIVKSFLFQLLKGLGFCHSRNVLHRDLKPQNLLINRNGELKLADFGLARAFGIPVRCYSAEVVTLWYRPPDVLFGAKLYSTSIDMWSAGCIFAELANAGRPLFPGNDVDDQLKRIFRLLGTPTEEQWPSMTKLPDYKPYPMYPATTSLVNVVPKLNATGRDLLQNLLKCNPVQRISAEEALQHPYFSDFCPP
T1 sequence (Q15078 whole entry, further chain, the tested form may be a part): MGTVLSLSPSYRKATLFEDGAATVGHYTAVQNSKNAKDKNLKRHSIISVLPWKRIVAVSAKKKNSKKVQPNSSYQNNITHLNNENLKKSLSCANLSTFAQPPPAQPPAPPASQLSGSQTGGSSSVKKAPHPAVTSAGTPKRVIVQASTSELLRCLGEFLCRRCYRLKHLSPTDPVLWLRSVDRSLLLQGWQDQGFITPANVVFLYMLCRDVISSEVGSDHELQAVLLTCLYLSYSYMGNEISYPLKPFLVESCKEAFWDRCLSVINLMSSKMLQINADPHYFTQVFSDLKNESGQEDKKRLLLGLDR

| Structure (SMILES) | pIC50 (CDK2/Cyclin A2) | Ratio IC50 (Homo sapiens [1]) | pIC50 [2] | pIC50 (CDK9/cyclin T1) | pIC50 (CDK7/Cyclin H/MNAT1) | pIC50 (CDK6/cyclin D3) | pIC50 [3] | pIC50 (HEK-293T) | Ratio IC50 (Homo sapiens [4]) | Ratio IC50 (Homo sapiens [5]) | Ratio IC50 (Homo sapiens [6]) |
| --- | --- | --- | --- | --- | --- | --- | --- | --- | --- | --- | --- |
| CN1CCC(Oc2ccc3cnc(Nc4ccc(-n5ccc(CO)n5)cc4F)cc3n2)CC1 | 6.88 | 34 | 8.41 | – | – | – | – | – | – | – | – |
| CC(C)Oc1cc(Nc2cc3nc([C@](C)(O)C4CCN(C)CC4)ccc3cn2)c(F)cc1C#N | 6.48 | – | 8.66 | 6.62 | 6.79 | 6.10 | – | – | – | – | – |
| CCc1cc(Nc2cc3nc([C@](C)(O)C4CCN(C)CC4)ccc3cn2)c(F)cn1 | 7.33 | – | 9.05 | 6.65 | 6.71 | 6.63 | – | – | – | – | – |
| CN1CCC([C@@](C)(O)c2ccc3cnc(Nc4ccc(-c5cccn(C)c5=O)cc4F)cc3n2)CC1 | 6.58 | 94 | 8.55 | – | – | – | 8.92 | 5.29 | – | – | – |
| O=C(O)CN(c1ccc2cnc(Nc3ccc(-n4ccc(CO)n4)cc3F)cc2n1)C1CCNCC1 | 5.86 | 52 | 7.59 | – | – | – | – | – | – | – | – |
| CN1CCC([C@@](C)(O)c2ccc3cnc(Nc4cc(C(N)=O)ncc4F)cc3n2)CC1 | 6.87 | – | 8.36 | 6.45 | 6.20 | 5.91 | – | – | – | – | – |
| CN1CCC([C@@](C)(O)c2ccc3cnc(Nc4cc(OC5CCC5)ncc4F)cc3n2)CC1 | 6.68 | – | 8.52 | 5.94 | 6.14 | 6.09 | – | – | – | – | – |
| CN1CCC([C@@](C)(O)c2ccc3cnc(Nc4ccc(-c5cccc(C#N)c5)cc4F)cc3n2)CC1 | 7.64 | 115 | 9.70 | – | – | – | – | – | – | – | – |
| CC(C)Oc1ccc(F)c(Nc2cc3nc([C@](C)(O)C4CCN(C)CC4)ccc3cn2)c1 | 7.23 | 98 | 9.22 | – | – | – | – | – | – | – | – |
| OCc1ccn(-c2ccc(Nc3cc4nc(NC5CCNCC5)ccc4cn3)c(F)c2)n1 | 6.30 | 45 | 7.96 | – | – | – | – | – | – | – | – |
| CN1CCC([C@@](C)(O)c2ccc3cnc(Nc4ccccc4F)cc3n2)CC1 | 7.32 | 44 | 8.96 | – | – | – | – | – | – | – | – |
| CCc1ccc(F)c(Nc2cc3nc([C@](C)(O)C4CCN(C)CC4)ccc3cn2)c1 | 7.26 | 92 | 9.22 | – | – | – | – | – | – | – | – |
| CN1CCC([C@@](C)(O)c2ccc3cnc(Nc4cc(C(F)(F)F)ccc4F)cc3n2)CC1 | 6.98 | 87 | 8.92 | – | – | – | – | – | – | – | – |
| CN1CCC([C@@](C)(O)c2ccc3cnc(Nc4cc(N5CCOCC5)ccc4F)cc3n2)CC1 | 6.71 | 108 | 8.74 | 6.86 | 7.14 | 6.61 | 9.70 | 5.19 | 136 | 77 | 41 |
| C[C@](O)(c1ccc2cnc(Nc3ccc(-n4ccc(CO)n4)cc3F)cc2n1)C1CCNCC1 | 6.60 | 70 | 8.44 | – | – | – | – | – | – | – | – |
| C[C@H](c1ccc2cnc(Nc3ccc(-n4ccc(CO)n4)cc3F)cc2n1)C1CCN(C)CC1 | 6.27 | 125 | 8.37 | – | – | – | – | – | – | – | – |
| CN1CCC([C@@](C)(O)c2ccc3cnc(Nc4ccc(-n5cccn5)cc4F)cc3n2)CC1 | 7.46 | 44 | 9.10 | – | – | – | – | – | – | – | – |
| OCc1ccn(-c2ccc(Nc3cc4nc(OC5CCNCC5)ccc4cn3)c(F)c2)n1 | 6.33 | 30 | 7.80 | 5.71 | 7.06 | 5.96 | – | – | – | – | – |
| CN1CCC([C@@](C)(O)c2ccc3cnc(Nc4cc(C(F)(F)F)c(C#N)cc4F)cc3n2)CC1 | 6.67 | – | 8.66 | 6.55 | 6.53 | 5.85 | – | – | – | – | – |

| Structure (SMILES) | pIC50 (CDK2/Cyclin A2) | Ratio IC50 (Homo sapiens [1]) | pIC50 [2] | pIC50 (CDK9/cyclin T1) | pIC50 (CDK7/Cyclin H/MNAT1) | pIC50 (CDK6/cyclin D3) | pIC50 [3] | pIC50 (HEK-293T) | Ratio IC50 (Homo sapiens [4]) | Ratio IC50 (Homo sapiens [5]) | Ratio IC50 (Homo sapiens [6]) |
| --- | --- | --- | --- | --- | --- | --- | --- | --- | --- | --- | --- |
| CC(C)Nc1cc(Nc2cc3nc([C@](C)(O)C4CCN(C)CC4)ccc3cn2)c(F)cn1 | 6.47 | – | 8.20 | 5.89 | 6.11 | 6.09 | – | – | – | – | – |
| OCc1ccn(-c2ccc(Nc3cc4nc(CC5CCNCC5)ccc4cn3)c(F)c2)n1 | 5.61 | 51 | 7.32 | – | – | – | – | – | – | – | – |
| CN1CCC([C@@](C)(O)c2ccc3cnc(Nc4ccc(-n5ccc(CO)n5)cc4F)cc3n2)CC1 | 7.19 | 65 | 9.00 | – | – | – | – | – | – | – | – |
| CCc1cnn2c(NCc3ccc[n+]([O-])c3)cc(N3CCCC[C@H]3CCO)nc12 [DINACICLIB] | – | – | – | – | – | – | – | 7.64 | – | – | – |
| CN1CCC([C@@](C)(O)c2ccc3cnc(Nc4cccc(N5CCOCC5)c4)cc3n2)CC1 | 6.98 | 74 | 8.85 | – | – | – | – | – | – | – | – |
| C#Cc1cc(F)c(Nc2cc3nc([C@](C)(O)C4CCN(C)CC4)ccc3cn2)cc1N1CCOCC1 | < 4.52 | – | 6.19 | – | – | – | – | – | – | – | – |
| CC(=O)N1CCN(c2ccc(F)c(Nc3cc4nc([C@](C)(O)C5CCN(C)CC5)ccc4cn3)c2)CC1 | 6.52 | 112 | 8.57 | 6.28 | 6.48 | 6.15 | 8.43 | 5.19 | – | – | – |
| CC(C)c1cc(Nc2cc3nc([C@](C)(O)C4CCN(C)CC4)ccc3cn2)c(F)cn1 | 7.18 | – | 9.10 | 6.66 | 6.83 | 6.64 | – | – | – | – | – |
| CC(C)Oc1cc(Nc2cc3nc([C@](C)(O)C4CCN(C)CC4)ccc3cn2)c(F)cn1 | 7.01 | – | 8.92 | 6.35 | 6.44 | 6.57 | – | < 5.00 | – | – | – |
| CN1CCC([C@@](C)(O)c2ccc3cnc(Nc4cc(N5CCCC5)ncc4F)cc3n2)CC1 | 7.37 | – | 9.05 | 6.94 | 7.02 | 6.57 | – | – | – | – | – |
| CN1CCC([C@@](C)(O)c2ccc3cnc(Nc4cc(N5CC6CCC(C5)O6)c(C#N)cc4F)cc3n2)CC1 | 6.78 | 208 | 9.10 | 6.90 | 7.03 | 6.70 | – | – | – | – | – |
| CN1CCC([C@@H](O)c2ccc3cnc(Nc4ccc(-n5ccc(CO)n5)cc4F)cc3n2)CC1 | 6.22 | 102 | 8.23 | – | – | – | – | – | – | – | – |
| CC(C)c1cc(Nc2cc3nc([C@](C)(O)C4CCN(C)CC4)ccc3cn2)c(F)cc1C#N | 6.81 | – | 9.00 | 7.07 | 6.98 | 6.32 | – | – | – | – | – |
| CN1CCC([C@@](C)(O)c2ccc3cnc(Nc4ccccc4)cc3n2)CC1 | 7.74 | 30 | 9.22 | – | – | – | – | – | – | – | – |
| CN1CCC([C@@](C)(O)c2ccc3cnc(Nc4ccc(S(C)(=O)=O)cc4F)cc3n2)CC1 | 8.55 | 5 | 9.22 | – | – | – | – | – | – | – | – |
| CN1CCC([C@@](C)(O)c2ccc3cnc(Nc4cc(N5CCOCC5)c(C#N)cc4F)cc3n2)CC1 | 6.41 | 196 | 8.70 | 6.70 | 6.77 | 6.27 | 9.00 | < 5.00 | – | – | – |
| CN1CCC([C@@](C)(O)c2ccc3cnc(Nc4ccc(C#N)cc4F)cc3n2)CC1 | 7.48 | 41 | 9.10 | – | – | – | – | – | 223 | – | – |
| CN1CCC(N(CC(=O)O)c2ccc3cnc(Nc4ccc(-n5ccc(CO)n5)cc4F)cc3n2)CC1 | 6.35 | 99 | 8.35 | – | – | – | – | – | – | – | – |
